Active and inactive are the calls of the source. For most assays here, no stated cut-off is given here; in the data, actives have a measured EC50 and inactives only a lower limit.
Tests used:
cells [1] = format: functional, cell-based
cells [2] = format: functional, cell-based; remark: listed apart in the source
[3] = molecular target: T1, Calpain-2 catalytic subunit (Sus scrofa, UniProt P43367); experiment: m-calpain protease blockers, concentration series – biochemical, fluorogenic peptide substrate, dose response (AID 1420); format: functional
T1 sequence (P43367 whole entry): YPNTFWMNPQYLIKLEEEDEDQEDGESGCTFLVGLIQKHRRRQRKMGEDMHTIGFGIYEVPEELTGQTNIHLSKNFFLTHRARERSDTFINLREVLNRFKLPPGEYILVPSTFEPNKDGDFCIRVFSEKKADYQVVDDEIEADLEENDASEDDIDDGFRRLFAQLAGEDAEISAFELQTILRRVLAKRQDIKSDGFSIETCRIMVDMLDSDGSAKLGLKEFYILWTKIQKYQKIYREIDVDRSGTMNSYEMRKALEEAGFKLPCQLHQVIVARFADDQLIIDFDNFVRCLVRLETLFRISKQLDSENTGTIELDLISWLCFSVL

[4] = NIH3T3 cell viability loss – ATP luminescence, mouse fibroblasts, counter-screen, dose response (AID 2010); format: functional, cell-based;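 further: cells exposed to compound for about 90 hours before reading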
[5] = molecular target: T2, Heat shock factor protein 1 (Mus musculus, UniProt P38532); experiment: enhancement of HSF1-driven luciferase signal – cell-based, NIH3T3, luminescence, dose retest, confirmation (AID 435004); format: functional;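 further: stress induced by proteasome inhibitor MG132 added 30 min after compound; luciferase reporter driven by HSF1 response element in NIH3T3 cells; actives raise luminescence as potentiators of the MG132 stress response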
T2 sequence (P38532 whole entry): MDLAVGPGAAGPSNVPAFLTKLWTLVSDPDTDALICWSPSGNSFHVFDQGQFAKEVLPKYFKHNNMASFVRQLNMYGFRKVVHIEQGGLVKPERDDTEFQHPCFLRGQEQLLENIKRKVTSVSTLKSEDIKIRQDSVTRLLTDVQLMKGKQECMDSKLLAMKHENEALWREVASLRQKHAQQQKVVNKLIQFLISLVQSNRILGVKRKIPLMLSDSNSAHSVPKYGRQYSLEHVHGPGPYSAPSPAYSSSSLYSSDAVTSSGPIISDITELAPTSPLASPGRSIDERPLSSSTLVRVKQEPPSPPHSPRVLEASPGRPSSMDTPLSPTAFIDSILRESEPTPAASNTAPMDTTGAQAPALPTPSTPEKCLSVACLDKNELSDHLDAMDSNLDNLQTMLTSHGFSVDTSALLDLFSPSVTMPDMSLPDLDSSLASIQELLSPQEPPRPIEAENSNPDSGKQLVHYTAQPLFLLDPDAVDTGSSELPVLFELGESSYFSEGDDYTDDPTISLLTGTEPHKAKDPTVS

[6] = Trypanosoma cruzi growth suppression in host cells – NIH3T3 host cells, beta-gal luminescence, confirmation (AID 2044); format: functional, cell-based;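 further: intracellular parasites grown in NIH/3T3 mouse fibroblasts as host cells; luminescent beta-galactosidase reporter signal from transgenic T. cruzi replicating inside host cells; inhibitors lower the luminescence signal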
Fatty acid synthase [7] = molecular target: T3, Fatty acid synthase (Homo sapiens, UniProt P49327); experiment: inhibition of human FAS-TE enzyme activity – biochemical, endpoint fluorescence intensity, uHTS hits, dose response (AID 624327); format: functional;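 further: fluorescence from hydrolysis of an O-methyl fluorescein acyl ester substrate by the enzyme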
T3 sequence (P49327 whole entry): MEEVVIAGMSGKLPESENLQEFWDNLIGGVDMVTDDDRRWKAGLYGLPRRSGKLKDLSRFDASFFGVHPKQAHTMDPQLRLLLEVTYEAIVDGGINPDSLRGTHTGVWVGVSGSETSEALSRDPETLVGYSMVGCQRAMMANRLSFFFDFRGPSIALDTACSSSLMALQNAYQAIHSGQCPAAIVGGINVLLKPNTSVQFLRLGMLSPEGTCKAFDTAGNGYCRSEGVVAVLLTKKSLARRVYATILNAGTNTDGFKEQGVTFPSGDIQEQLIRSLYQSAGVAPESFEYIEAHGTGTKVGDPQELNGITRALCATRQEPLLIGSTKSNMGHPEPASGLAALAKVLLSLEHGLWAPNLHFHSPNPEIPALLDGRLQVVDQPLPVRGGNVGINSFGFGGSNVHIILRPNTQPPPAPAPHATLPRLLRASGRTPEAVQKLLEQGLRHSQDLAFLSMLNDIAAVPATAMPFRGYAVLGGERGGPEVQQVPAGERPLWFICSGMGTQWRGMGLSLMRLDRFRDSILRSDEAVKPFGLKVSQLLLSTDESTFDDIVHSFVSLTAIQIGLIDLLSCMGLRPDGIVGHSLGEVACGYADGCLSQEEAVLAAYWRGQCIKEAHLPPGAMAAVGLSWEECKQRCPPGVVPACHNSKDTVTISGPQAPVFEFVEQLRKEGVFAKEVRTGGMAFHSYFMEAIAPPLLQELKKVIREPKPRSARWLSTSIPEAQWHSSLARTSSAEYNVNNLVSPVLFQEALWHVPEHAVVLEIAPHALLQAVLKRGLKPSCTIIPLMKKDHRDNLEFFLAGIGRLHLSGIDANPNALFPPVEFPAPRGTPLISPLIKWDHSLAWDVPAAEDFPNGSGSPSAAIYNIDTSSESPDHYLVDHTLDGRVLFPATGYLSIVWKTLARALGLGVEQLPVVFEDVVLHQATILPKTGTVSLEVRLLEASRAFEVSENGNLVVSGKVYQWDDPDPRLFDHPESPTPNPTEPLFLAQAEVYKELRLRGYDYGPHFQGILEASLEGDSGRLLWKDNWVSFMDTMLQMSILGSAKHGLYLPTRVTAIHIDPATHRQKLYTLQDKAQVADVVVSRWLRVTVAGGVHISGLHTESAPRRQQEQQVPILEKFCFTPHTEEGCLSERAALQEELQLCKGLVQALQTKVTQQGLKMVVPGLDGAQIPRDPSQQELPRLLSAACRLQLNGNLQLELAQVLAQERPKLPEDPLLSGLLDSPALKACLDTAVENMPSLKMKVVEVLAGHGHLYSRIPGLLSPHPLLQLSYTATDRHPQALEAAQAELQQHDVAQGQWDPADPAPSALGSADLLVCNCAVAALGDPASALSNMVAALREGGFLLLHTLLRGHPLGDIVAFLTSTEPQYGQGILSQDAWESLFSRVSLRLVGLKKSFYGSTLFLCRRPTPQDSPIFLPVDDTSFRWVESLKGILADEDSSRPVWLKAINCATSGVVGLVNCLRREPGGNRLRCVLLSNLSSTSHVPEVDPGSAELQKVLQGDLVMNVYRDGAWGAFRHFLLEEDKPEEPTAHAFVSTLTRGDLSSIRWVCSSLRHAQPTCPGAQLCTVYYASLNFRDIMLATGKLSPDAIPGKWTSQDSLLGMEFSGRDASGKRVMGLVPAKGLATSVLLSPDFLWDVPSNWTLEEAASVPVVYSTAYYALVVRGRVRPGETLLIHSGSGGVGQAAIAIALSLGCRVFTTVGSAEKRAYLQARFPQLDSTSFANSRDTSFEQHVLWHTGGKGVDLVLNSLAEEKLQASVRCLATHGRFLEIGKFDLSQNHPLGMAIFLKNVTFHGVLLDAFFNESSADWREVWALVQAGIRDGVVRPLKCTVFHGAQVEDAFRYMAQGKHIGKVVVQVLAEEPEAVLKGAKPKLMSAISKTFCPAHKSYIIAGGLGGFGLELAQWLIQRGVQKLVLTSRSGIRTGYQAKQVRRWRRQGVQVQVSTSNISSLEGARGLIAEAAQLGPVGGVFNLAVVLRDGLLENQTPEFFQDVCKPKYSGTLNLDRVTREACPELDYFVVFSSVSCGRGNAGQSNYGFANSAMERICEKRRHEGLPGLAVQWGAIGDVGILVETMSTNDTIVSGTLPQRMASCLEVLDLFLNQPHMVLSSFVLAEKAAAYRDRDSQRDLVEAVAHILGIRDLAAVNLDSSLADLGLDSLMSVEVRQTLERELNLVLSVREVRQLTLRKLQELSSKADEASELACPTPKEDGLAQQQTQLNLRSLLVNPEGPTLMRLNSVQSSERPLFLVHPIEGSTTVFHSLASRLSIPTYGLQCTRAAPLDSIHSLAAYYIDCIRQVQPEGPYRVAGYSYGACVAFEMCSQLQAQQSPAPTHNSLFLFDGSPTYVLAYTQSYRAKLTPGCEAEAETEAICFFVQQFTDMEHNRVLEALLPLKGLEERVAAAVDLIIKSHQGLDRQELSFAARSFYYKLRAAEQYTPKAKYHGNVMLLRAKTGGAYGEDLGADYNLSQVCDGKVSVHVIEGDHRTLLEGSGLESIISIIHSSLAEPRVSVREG

Fatty acid synthase [8] = molecular target: T3, Fatty acid synthase; experiment: inhibition of human FAS-TE enzyme activity – biochemical, kinetic fluorescence intensity, dose response (AID 624326); format: functional;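 further: rate of fluorescence rise from hydrolysis of a fluorogenic O-methyl fluorescein ester substrate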
[9] = Luminescence Cell-Based Dose Response HTS to Identify Activators of Luciferase Translation or Activity in H4 […] Cells. [Related pubchem assays: 1829 (Project Summary), 1814 (Primary HTS)]; format: functional
H4 = experiment: Luminescence Cell-Based Dose Response HTS to Identify Activators of 5'UTR Stem-Loop Driven Prion Protein mRNA Translation in H4 Neuroglioblastoma Cells. [Related pubchem assays: 1829 (Project Summary), 1814 (Primary HTS)]; format: functional; conditions: Homo sapiens
[10] = Luminescence Cell-Based Dose Retest to Confirm Inhibitors of Cancer Stem Cells. [Related pubchem assays (depositor defined):AID2717, AID2721]; format: functional; conditions: Homo sapiens
INS1 = experiment: INS-1E survival protection against cytokine death – cell-based, luminescence, retest, dose response (AID 449756); format: functional; conditions: Rattus norvegicus;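 further: cell death triggered by IL-1 beta plus TNF-alpha plus IFN-gamma mixture; protective hits raise ATP signal compared with cytokine alone wells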
[11] = molecular target: Luciferin 4-monooxygenase (Photinus pyralis, UniProt P08659); experiment: inhibition of purified Photinus pyralis luciferase – biochemical, luminescence, dose response (AID 1891)
Chain of Luciferin 4-monooxygenase (P08659 whole entry): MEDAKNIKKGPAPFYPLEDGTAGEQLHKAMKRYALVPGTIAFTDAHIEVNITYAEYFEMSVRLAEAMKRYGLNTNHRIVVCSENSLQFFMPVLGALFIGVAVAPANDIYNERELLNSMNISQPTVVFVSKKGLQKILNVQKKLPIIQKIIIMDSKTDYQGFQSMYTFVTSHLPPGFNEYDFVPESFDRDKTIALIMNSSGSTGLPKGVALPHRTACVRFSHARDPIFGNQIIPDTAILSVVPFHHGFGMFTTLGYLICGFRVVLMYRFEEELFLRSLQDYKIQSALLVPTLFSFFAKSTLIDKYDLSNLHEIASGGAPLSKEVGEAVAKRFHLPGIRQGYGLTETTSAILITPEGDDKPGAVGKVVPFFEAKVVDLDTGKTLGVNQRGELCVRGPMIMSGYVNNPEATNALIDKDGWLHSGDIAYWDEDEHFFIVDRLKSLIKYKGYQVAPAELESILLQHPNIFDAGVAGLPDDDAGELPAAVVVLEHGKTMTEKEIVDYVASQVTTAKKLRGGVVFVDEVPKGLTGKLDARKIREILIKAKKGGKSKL

[12] = Luminescence Cell-Based Dose Confirmation HTS to Identify Inhibitors of Platelet Dense Granule Release. [Related pubchem assays: 1663 (Primary HTS), 1678 (Summary of Project)]; format: functional
Protein skinhead-1 = molecular target: T4, Protein skinhead-1 (Caenorhabditis elegans, UniProt P34707); format: functional
T4 sequence (P34707 whole entry): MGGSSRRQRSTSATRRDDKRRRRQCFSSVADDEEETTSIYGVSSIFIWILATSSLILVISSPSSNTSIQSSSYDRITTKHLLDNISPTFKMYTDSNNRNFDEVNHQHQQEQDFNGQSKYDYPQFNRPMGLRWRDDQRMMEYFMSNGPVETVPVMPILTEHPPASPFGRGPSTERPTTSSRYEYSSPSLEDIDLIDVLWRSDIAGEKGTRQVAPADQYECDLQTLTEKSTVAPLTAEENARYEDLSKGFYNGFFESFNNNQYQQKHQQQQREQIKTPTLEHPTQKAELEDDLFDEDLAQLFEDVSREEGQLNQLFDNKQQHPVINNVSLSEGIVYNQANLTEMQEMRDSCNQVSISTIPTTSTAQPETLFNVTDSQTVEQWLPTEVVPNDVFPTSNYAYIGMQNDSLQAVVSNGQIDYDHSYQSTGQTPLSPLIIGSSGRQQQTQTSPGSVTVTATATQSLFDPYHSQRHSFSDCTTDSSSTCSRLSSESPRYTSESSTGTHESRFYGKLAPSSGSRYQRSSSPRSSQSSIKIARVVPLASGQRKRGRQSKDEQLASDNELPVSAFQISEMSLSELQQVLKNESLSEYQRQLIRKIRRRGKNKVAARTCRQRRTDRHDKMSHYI

SMILES: COc1ccc(C(=O)N2CCCCCC2)cc1S(=O)(=O)N1CCOCC1
- EC50 (cells [1]): > 350 µM (not active)
- EC50 (cells [2]): > 350 µM (not active)

SMILES: COc1cccc(C(=O)C2CCCN(Cc3ccc4nsnc4c3)C2)c1 (stereo not drawn)
- EC50 (cells [1]): > 350 µM (not active)
- EC50 (cells [2]): > 350 µM (not active)

SMILES: CC1CC(=O)c2cnc(NCC3CCCO3)nc2C1 (stereo not drawn)
- IC50 [3]: 6.33 µM (not active)

SMILES: c1ccc(CCc2ccncc2)cc1
- EC50 [4]: > 60 µM (not active)
- EC50 [5]: > 260 µM (inactive)
- EC50 [6]: 1.52 µM (active)

SMILES: COc1ccc(C(=O)NCC(=O)OCC(=O)c2ccc3c(c2)NC(=O)CO3)cc1
- EC50 [5]: > 260 µM (inactive)

SMILES: O=C(NNS(=O)(=O)c1ccc([N+](=O)[O-])cc1)c1ccc([N+](=O)[O-])cc1
- IC50 (Fatty acid synthase [7]): 4.95 µM (active)
- IC50 (Fatty acid synthase [8]): 4.24 µM (active)

SMILES: ON=C1c2cc(OCCN3CCCCC3)ccc2-c2ccc(OCCN3CCCCC3)cc21
- EC50 (cells [1]): > 350 µM (not active)
- EC50 [9]: > 120 µM (not active)
- EC50 [4]: > 60 µM (not active)
- EC50 (H4): > 120 µM (not active)
- EC50 (cells [2]): > 350 µM (not active)
- EC50 [6]: 1.43 µM (active)

SMILES: FC(F)(F)c1cccc(N2CCN(C(S)=NC3CCCC3)CC2)c1
- IC50 [3]: 7.79 µM (not active)

SMILES: Cc1ccc(NC(=O)Cn2cnc3c(=O)n(C)c(=O)n(C)c32)c(C)c1
- EC50 (cells [1]): > 350 µM (not active)
- EC50 (cells [2]): > 350 µM (not active)

SMILES: Nc1ccc(C(=O)Nc2ccc3[nH]c(-c4ccncc4)nc3c2)cc1
- EC50 (cells [1]): 49.5 µM (active)
- EC50 (cells [2]): > 350 µM (not active)

SMILES: Cc1ccccc1CCN(C(=O)Cn1nnc2ccccc21)C(C(=O)NCC1CCCO1)c1nc2ccccc2n1C (stereo not drawn)
- IC50 [3]: 29.6 µM (not active)

SMILES: O=C(COC(=O)c1cc([N+](=O)[O-])ccc1N1CCOCC1)Nc1c(Cl)cccc1C(F)(F)F
- IC50 (Fatty acid synthase [7]): 8.05 µM (active)
- IC50 (Fatty acid synthase [8]): 8.39 µM (active)

SMILES: CCOC(=O)N1CCN(c2ccc(C(=O)c3cccc(F)c3)cc2)CC1
- IC50 [3]: 14.3 µM (not active)
- AC50 [10]: 3.36 µM (active)

SMILES: COc1ccc(/C=C/C(=O)c2ccc([N+](=O)[O-])o2)cc1
- AC50 (INS1): 6.75 µM (active)
- AC50 [10]: 1.31 µM (active)

SMILES: CCCCC(=O)OCC(=O)c1[nH]c(C)c(C(C)=O)c1C
- EC50 [11]: > 112 µM (not active)
- EC50 [12]: 0.816 µM (active)
- IC50 [3]: 21.5 µM (not active)

SMILES: COC(=O)N1C(=O)[C@](CC(C)C)(c2ccccc2)N1C(=O)OC
- IC50 (Fatty acid synthase [7]): 0.544 µM (active)
- IC50 (Fatty acid synthase [8]): 0.385 µM (active)

SMILES: COc1ccc(CCNC(=O)COC(=O)CCC(=O)c2ccc(F)cc2)cc1OC
- EC50 (cells [1]): > 350 µM (not active)
- EC50 (cells [2]): > 350 µM (not active)

SMILES: C=C1CCC[C@]2(C)C[C@H]3OC(=O)C(CNC(CC)CO)[C@H]3CC12 (stereo partly drawn)
- EC50 [5]: > 260 µM (inactive)

SMILES: CCCCn1c(=O)c2c(=O)cc(O)oc2c2ccccc21
- EC50 (cells [1]): > 350 µM (not active)
- EC50 (cells [2]): > 350 µM (not active)

SMILES: Cc1nc2scc(-c3ccccc3)c2c(=O)o1
- IC50 (Fatty acid synthase [7]): 5.75 µM (active)
- IC50 (Fatty acid synthase [8]): 80 µM (inactive)

SMILES: Cc1nn(-c2ccc(F)cc2)c2sc(C(=O)N3CCCCCC3)cc12
- IC50 (Protein skinhead-1): > 100 µM (inactive)
- IC50 [3]: > 50 µM (not active)

SMILES: COc1ccc(Nc2nc(-c3ccccc3O)nc3ccccc23)cc1
- AC50 [10]: 2.75 µM (active)

SMILES: CC(C)Cn1c(SCC(=O)NC(=O)Nc2ccc3c(c2)OCCO3)nc2ccccc2c1=O
- IC50 [3]: > 50 µM (not active)

SMILES: O=S(=O)(c1ccc(Cl)cc1)N1CCCC(c2nc(-c3ccc(F)cc3)no2)C1 (stereo not drawn)
- IC50 (Fatty acid synthase [7]): 5.59 µM (active)
- IC50 (Fatty acid synthase [8]): 6.27 µM (active)

SMILES: O=C(O)c1cccnc1Sc1ccccc1
- EC50 [5]: > 260 µM (inactive)

SMILES: CC(=O)Cn1c(=O)c2c(nc3n2CCCN3Cc2ccccc2)n(C)c1=O
- EC50 (cells [1]): > 350 µM (not active)
- EC50 (cells [2]): > 350 µM (not active)

SMILES: CCn1c(=O)c(C(=O)NCc2ccccc2OC)c(O)c2ccccc21
- AC50 [10]: 1.26 µM (active)

SMILES: Cc1ccc(NC(=O)Nc2cccc(F)c2)nc1
- EC50 (cells [1]): > 350 µM (not active)
- EC50 (cells [2]): 11.8 µM (active)

SMILES: C=CCSc1nnc(-c2ccc([N+](=O)[O-])cc2)o1
- IC50 [3]: 34.3 µM (not active)

SMILES: COc1c(Br)cc(Br)cc1C(=O)O
- EC50 [5]: > 260 µM (inactive)

SMILES: COC(=O)c1cccc(C(=O)N2CCCC(C(=O)c3ccccc3OC)C2)c1 (stereo not drawn)
- EC50 [5]: > 260 µM (inactive)

SMILES: CC(C=Cc1ccccc1)=NNS(=O)(=O)c1ccc([N+](=O)[O-])cc1
- IC50 (Fatty acid synthase [7]): 9.36 µM (active)
- IC50 (Fatty acid synthase [8]): 6.23 µM (active)

SMILES: C[C@@H]1CN([C@H](C)CO)C(=O)c2cccc(NC(=O)NC3CCCCC3)c2O[C@@H]1CN(C)C(=O)Nc1ccc(C(F)(F)F)cc1
- IC50 (Fatty acid synthase [7]): 2.09 µM (active)
- IC50 (Fatty acid synthase [8]): 2.26 µM (active)

SMILES: COc1ccc(C2=CC(=O)CC(c3ccc(F)cc3)C2)cn1 (stereo not drawn)
- EC50 [5]: > 260 µM (inactive)

SMILES: Cc1ccc(C(=O)N/C(=C\c2cn(S(=O)(=O)N(C)C)c3ccccc23)C(=O)N2CCCC2)cc1
- IC50 (Fatty acid synthase [7]): 1.58 µM (active)
- IC50 (Fatty acid synthase [8]): 1.23 µM (active)

SMILES: COCCNC(=S)N/N=C/c1ccc(N2CCOCC2)cc1
- EC50 [5]: > 260 µM (inactive)

SMILES: O=C(CN1CCN(S(=O)(=O)c2ccc(Cl)c(C(F)(F)F)c2)CC1)NC(=O)NC1CCCCC1
- IC50 (Fatty acid synthase [7]): 3.5 µM (active)
- IC50 (Fatty acid synthase [8]): 37.1 µM (inactive)

SMILES: CCc1nnc(S)n1/N=C/c1ccc(-c2ccc(Br)cc2)o1
- EC50 (cells [1]): > 350 µM (not active)
- EC50 (cells [2]): > 350 µM (not active)
